Experiments:
rice cv. Cheniere [1] = assay: Pouch assay, PESA salt and herbicide added to the pouch solution; root and shoot length; format: in vivo; details: for Shoot Length / Root Length: 0 ppm PESA salt; for Shoot Length: untreated 3.2; for Root Length: untreated 9.2
Experimental: Alternatively, PESA salt and herbicides may be added separately to the sterile water in the growth pouch.
(§1) Seeds were placed in germination pouches consisting of germination paper hydrated with sterile water that was an insert in a gas-permeable 16×14 cm plastic pouch (CYG Pouch; Mega International, St. Paul, Minn.). In these examples, in pouch solution evaluation, PESA sodium salt or other active ingredients were added to the sterile water in the pouch. The pouches were arranged in a completely randomized block design in growth racks and placed in 19-liter polycarbonate food storage containers (Rubbermaid Commercial Products, Winchester, Va.). The sealed containers were held in an upright growth cabinet maintained at 25 C with a 12 hour light: 12 hour dark photoperiod. After 6 days, the containers were removed from the growth cabinet, and the lengths of the roots and shoot were measured.

rice cv. Cheniere [2] = assay: Pouch assay with PESA salt seed treatment; root length; format: in vivo; details: 0 g PESA salt/100 lbs of seed, untreated 9.8
Experimental: Procedure for Treating Samples of Seed in the Laboratory
Seed was sieved with a screen of mesh size appropriate to remove broken seeds and small trash. Cracked or otherwise damaged seeds were removed. The seed was well mixed, and 50 g samples were weighed into small plastic trays. Seed treatment slurries were made by adding measured amounts of PESA or its salts and other AIs to sufficient water to bring them up to a standard volume, typically 2 ml. A fungicide (Maxim XL; Syngenta Agricultural Products, Greensboro, N.C.), a polymeric binder (CF-Clear; Becker-Underwood, Ames, Iowa), and a colorant (Color Coat Red; Becker-Underwood, Ames, Iowa) were also included in the slurry at label rates. A small aliquot of this slurry was applied to the seed using the Hege 11 coater (Wintersteiger, Salt Lake City, Utah) with a six-inch bowl at a slurry rate of 30 ounces per 100 lbs of seed. The slurry was deposited drop-wise on the spinning disk atomizer using a syringe.
After treatment, each seed sample was placed in plastic trays and dried at a room temperature for 20 to 60 minutes. The samples were then placed in small plastic bags. Samples were spot-checked using a water activity meter to make sure the water activity is below 0.7.
as §1
Rice cv. Chemere was treated with PESA sodium salt prior to growing in the pouch. The treated seeds were then grown in the pouch in a dose-dependent series of trifluralin concentrations (Table 2). […] This confirms that seed treatment with the PESA salt protects or safens rice from the negative effects of trifluralin herbicide on root growth.

With `CCCN(CCC)c1c([N+](=O)[O-])cc(C(F)(F)F)cc1[N+](=O)[O-]` [Trifluralin, trifluralin, reference compound] the “Shoot Length” value (rice cv. Cheniere [1]; 1 ppm trifluralin) was 3.7 cm, the “Root Length” value (rice cv. Cheniere [1]; 1 ppm trifluralin) was 9.8 cm and the “Shoot Length” value (rice cv. Cheniere [1]; 10 ppm trifluralin) was 3.3 cm. The “Root Length” value (rice cv. Cheniere [1]; 10 ppm trifluralin) was 8.3 cm, the “root length reduced by” value (rice cv. Cheniere [1]; 100 ppm trifluralin) was 90% and the “Shoot Length” value (rice cv. Cheniere [1]; 100 ppm trifluralin) was 2.2 cm. For the same molecule, the “Root Length” value (rice cv. Cheniere [1]; 100 ppm trifluralin) was 0.9 cm, the “Root Length” value (rice cv. Cheniere [2]; 50 ppm trifluralin) was 0.9 cm and the “Root Length” value (rice cv. Cheniere [2]; 100 ppm trifluralin) was 0.1 cm.

From patent US8420574B2, “Plant growth enhancement with combinations of PESA and herbicides” (Valent BioSciences Corporation, priority 2009, dated 2013)
